Assay results published in patent US9365556B2, “3,5-diaminopyrazole kinase inhibitors” (Axikin Pharmaceuticals, Inc., priority 2012, dated 2016).

Assays:
[1] = target: T1, kinase domain protein of RC kinase (Homo sapiens, UniProt Q56UN5); experiment: Enzymatic assay for kinase inhibitory activity (Crebtide substrate, LANCE read-out); assay type: biochemical; conditions: compound at 1 μM
T1 sequence (Q56UN5 1061-1324 limits assumed): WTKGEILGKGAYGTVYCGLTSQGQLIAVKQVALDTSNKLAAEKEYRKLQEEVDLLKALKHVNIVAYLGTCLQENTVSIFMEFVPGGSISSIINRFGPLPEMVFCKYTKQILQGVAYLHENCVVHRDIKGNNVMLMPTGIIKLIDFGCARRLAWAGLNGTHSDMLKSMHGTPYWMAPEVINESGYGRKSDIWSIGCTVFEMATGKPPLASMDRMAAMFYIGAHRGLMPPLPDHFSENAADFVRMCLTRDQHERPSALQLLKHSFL
In short: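 Compound tested at 1 μM final in HEPES/MgCl2/DTT buffer with 50 nM Crebtide and kinase domain at 1 μM ATP; full-length kinase at 3 μM ATP after 45 min preincubation. Reaction 45 min at room temperature, stopped with EDTA, read by LANCE TR-FRET (665/615 nm). Activity binned as % inhibition at 1 μM.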

SMILES | inhibition at 1 µM [1] | melting point | Activity (inhibition of the RC kinase activity) ([1]; 1 µM) | Activity (inhibition of the RC kinase activity) [1]
CS(=O)(=O)N1CCC(/C=N/c2[nH]nc(Nc3cccc(Cl)c3)c2C#N)CC1 [Compound A80] | ≤ 5% | 102 to 105 °C | – | –
N#Cc1c(Nc2cccc(Cl)c2)n[nH]c1/N=C/c1ccccc1-c1cccs1 [Compound A81] | 5 to 20% | 75 to 80 °C | – | –
N#Cc1c(Nc2cccc(Cl)c2)n[nH]c1/N=C/c1ccc(OC(F)F)c(O)c1 [Compound A82] | ≤ 5% | 164 to 176 °C | – | –
N#Cc1c(Nc2cccc(Cl)c2)n[nH]c1/N=C/c1ccc(-c2ccccn2)cc1 [Compound A84] | ≤ 5% | 326 to 329 °C | – | –
N#Cc1c(Nc2cccc(Cl)c2)n[nH]c1/N=C/c1cncc(N2CCCC2)c1 [Compound A86] | ≤ 5% | 305 to 309 °C | – | –
N#Cc1c(Nc2cccc(Cl)c2)n[nH]c1/N=C/c1ccc(-n2cncn2)cc1 [Compound A87] | ≤ 5% | 284 to 288 °C | – | –
N#Cc1c(Nc2cccc(Cl)c2)n[nH]c1/N=C/c1ccc(OCCO)cc1 [Compound A88] | 5 to 20% | 229 to 232 °C | – | –
N#Cc1c(Nc2cccc(Cl)c2)n[nH]c1/N=C/c1ccc2snnc2c1 [Compound A90] | ≤ 5% | 276 to 281 °C | – | –
N#Cc1c(Nc2cccc(Cl)c2)n[nH]c1/N=C/c1ccc(Cl)cc1O [Compound A91] | ≤ 5% | 283 to 284 °C | – | –
COc1ccc(/C=N/c2[nH]nc(Nc3cccc(Cl)c3)c2C#N)cc1F [Compound A93] | 20 to 50% | 217 to 220 °C | – | –
N#Cc1c(Nc2cccc(Cl)c2)n[nH]c1/N=C/c1ccc(F)cc1O [Compound A98] | 20 to 50% | 232 to 238 °C | – | –
Cc1cc(F)ccc1/C=N/c1[nH]nc(Nc2cccc(Cl)c2)c1C#N [Compound A99] | 5 to 20% | 253 to 257 °C | – | –
COc1ccc(/C=N/c2[nH]nc(Nc3cccc(Cl)c3)c2C#N)cn1 [Compound A100] | 5 to 20% | 286 to 291 °C | – | –
Cc1ccc(/C=N/c2[nH]nc(Nc3cccc(Cl)c3)c2C#N)c(O)c1 [Compound A101] | ≤ 5% | 293 to 296 °C | – | –
N#Cc1ccc(/C=N/c2[nH]nc(Nc3cccc(Cl)c3)c2C#N)cc1 [Compound A102] | 5 to 20% | 266 to 274 °C | – | –
N#Cc1c(Nc2cccc(Cl)c2)n[nH]c1/N=C/c1cnc(N)s1 [Compound A103] | – | 221 to 225 °C | D (no greater than 5% inhibition of the RC kinase activity at 1 μM) | –
N#Cc1c(Nc2cccc(Cl)c2)n[nH]c1/N=C/c1cc[nH]c1 [Compound A106] | ≤ 5% | 240 to 248 °C | – | –
N#Cc1c(Nc2cccnc2)n[nH]c1/N=C/c1ccc(O)cc1 [Compound A110] | 20 to 50% | 311 to 314 °C | – | –
N#Cc1c(Nc2cccc(Cl)c2)n[nH]c1/N=C/c1ccc(Oc2ncccn2)cc1 [Compound A111] | 20 to 50% | 224 to 230 °C | – | –
N#Cc1c(Nc2cccc(Cl)c2)n[nH]c1/N=C/c1ccc(Oc2ccc(C(F)(F)F)cn2)cc1 [Compound A112] | – | 268 to 270 °C | – | C (no greater than 20% but at least 5% inhibition of the RC kinase activity at 1 μM)

Second part, led by results:

inhibition at 1 µM [1] | melting point | SMILES | Activity (inhibition of the RC kinase activity) ([1]; 1 µM) | Activity (inhibition of the RC kinase activity) [1]
5 to 20% | 238 to 246 °C | COc1cccc(O)c1/C=N/c1[nH]nc(Nc2ccccc2Cl)c1C(N)=O [Compound B1] | – | –
≥ 50% | 296 to 298 °C | NC(=O)c1c(Nc2cccc(Cl)c2)n[nH]c1N=Cc1ccc(O)c([N+](=O)[O-])c1 [Compound B2, 3-((3-chlorophenyl)amino)-5-((4-hydroxy-3-nitrobenzylidene)amino)-1H-pyrazole-4-carboxamide] | – | –
5 to 20% | 295 to 297 °C | COc1ccc(C=Nc2[nH]nc(Nc3cccc(Cl)c3)c2C(N)=O)cc1 [Compound B3, 3-((3-chlorophenyl)amino)-5-((4-methoxybenzylidene)amino)-1H-pyrazole-4-carboxamide] | – | –
5 to 20% | 303 to 305 °C | NC(=O)c1c(Nc2cccc(Cl)c2)n[nH]c1/N=C/c1ccc(Cl)cc1 [Compound B4, 5-((4-chlorobenzylidene)amino)-3-((3-chlorophenyl)amino)-1H-pyrazole-4-carboxamide] | – | –
≥ 50% | 261 to 263 °C | NC(=O)c1c(Nc2cccc(Cl)c2)n[nH]c1/N=C/c1ccc(O)cc1 [Compound B5] | – | –
≥ 50% | 268 to 270 °C | COc1cc(/C=N/c2[nH]nc(Nc3cccc(Cl)c3)c2C(N)=O)ccc1O [Compound B7] | – | –
20 to 50% | 283 to 285 °C | COc1cccc(/C=N/c2[nH]nc(Nc3cccc(Cl)c3)c2C(N)=O)c1 [Compound B8] | – | –
≥ 50% | 275 to 277 °C | NC(=O)c1c(Nc2ccccc2)n[nH]c1/N=C/c1ccc(O)c([N+](=O)[O-])c1 [Compound B9] | – | –
5 to 20% | 291 to 293 °C | NC(=O)c1c(Nc2ccccc2)n[nH]c1/N=C/c1ccc(Cl)cc1 [Compound B12] | – | –
20 to 50% | 257 to 260 °C | COc1ccc(/C=N/c2[nH]nc(Nc3ccccc3)c2C(N)=O)cc1 [Compound B13] | – | –
5 to 20% | 280 to 283 °C | NC(=O)c1c(Nc2cccc(Cl)c2)n[nH]c1/N=C/c1cccc2ccccc12 [Compound B15] | – | –
20 to 50% | 270 to 273 °C | COc1ccccc1/C=N/c1[nH]nc(Nc2cccc(Cl)c2)c1C(N)=O [Compound B18] | – | –
20 to 50% | 265 to 267 °C | NC(=O)c1c(Nc2cccc(Cl)c2)n[nH]c1/N=C/c1c[nH]cn1 [Compound B19] | – | –
20 to 50% | 273 to 277 °C | NC(=O)c1c(Nc2ccc(Cl)cc2)n[nH]c1/N=C/c1ccc[nH]1 [Compound B20] | – | –
5 to 20% | 303 to 306 °C | NC(=O)c1c(Nc2ccc(Cl)cc2)n[nH]c1/N=C/c1ccccc1 [Compound B21] | – | –
20 to 50% | 295 to 297 °C | NC(=O)c1c(Nc2ccc(Cl)cc2)n[nH]c1/N=C/c1ccc(O)c([N+](=O)[O-])c1 [Compound B22] | – | –
≤ 5% | 313 to 315 °C | COc1ccc(/C=N/c2[nH]nc(Nc3ccc(Cl)cc3)c2C(N)=O)cc1 [Compound B23] | – | –

inhibition at 1 µM [1] | melting point | SMILES | Activity (inhibition of the RC kinase activity) ([1]; 1 µM) | Activity (inhibition of the RC kinase activity) [1]
≤ 5% | 307 to 309 °C | NC(=O)c1c(Nc2ccc(Cl)cc2)n[nH]c1/N=C/c1ccc(Cl)cc1 [Compound B24] | – | –
≤ 5% | 290 to 296 °C | NC(=O)c1c(Nc2ccc(Cl)cc2)n[nH]c1/N=C/c1cccc2ccccc12 [Compound B25] | – | –
≥ 50% | 288 to 289 °C | NC(=O)c1c(Nc2ccc(Cl)cc2)n[nH]c1/N=C/c1ccc(O)cc1 [Compound B26] | – | –
5 to 20% | 291 to 293 °C | NC(=O)c1c(Nc2ccc(Cl)cc2)n[nH]c1/N=C/c1ccc([N+](=O)[O-])cc1 [Compound B27] | – | –
≥ 50% | 220 to 225 °C | NC(=O)c1c(Nc2cccc(Cl)c2)n[nH]c1/N=C/c1ccc(O)cc1O [Compound B30] | – | –
≤ 5% | 279 to 283 °C | COc1cccc(/C=N/c2[nH]nc(Nc3ccc(Cl)cc3)c2C(N)=O)c1 [Compound B33] | – | –
≤ 5% | 270 to 273 °C | COc1ccccc1/C=N/c1[nH]nc(Nc2ccc(Cl)cc2)c1C(N)=O [Compound B34] | – | –
≥ 50% | 243 to 246 °C | NC(=O)c1c(Nc2ccc(Cl)cc2)n[nH]c1/N=C/c1ccc(O)cc1O [Compound B36] | – | –
5 to 20% | 281 to 283 °C | NC(=O)c1c(Nc2cccc(Cl)c2)n[nH]c1/N=C/c1cc(Br)ccc1O [Compound B49, 5-((5-bromo-2-hydroxybenzylidene)amino)-3-((3-chlorophenyl)amino)-1H-pyrazole-4-carboxamide] | – | –
5 to 20% | 283 to 287 °C | NC(=O)c1c(Nc2cccc(Cl)c2)n[nH]c1/N=C/c1cc(Cl)ccc1O [Compound B50] | – | –
5 to 20% | 271 to 274 °C | COc1cccc(/C=N/c2[nH]nc(Nc3cccc(Cl)c3)c2C(N)=O)c1O [Compound B53] | – | –
5 to 20% | 284 to 286 °C | NC(=O)c1c(Nc2cccc(Cl)c2)n[nH]c1/N=C/c1ccccc1O [Compound B54] | – | –
5 to 20% | 301 to 304 °C | NC(=O)c1c(Nc2ccccc2Cl)n[nH]c1/N=C/c1ccc(O)c([N+](=O)[O-])c1 [Compound B113] | – | –
20 to 50% | 294 to 296 °C | NC(=O)c1c(Nc2ccccc2Cl)n[nH]c1/N=C/c1ccc([N+](=O)[O-])c(O)c1 [Compound B114] | – | –
≥ 50% | 254 to 258 °C | NC(=O)c1c(Nc2ccccc2Cl)n[nH]c1/N=C/c1ccc(O)cc1 [Compound B117] | – | –
5 to 20% | 304 to 306 °C | COc1ccc(/C=N/c2[nH]nc(Nc3ccccc3Cl)c2C(N)=O)cc1[N+](=O)[O-] [Compound B118] | – | –
